Patent US20260184663A1, “INDENE COMPOUNDS, PHARMACEUTICAL COMPOSITIONS THEREOF, AND THEIR THERAPEUTIC APPLICATIONS” (NucMito Pharmaceuticals co. Ltd., priority 2022, published 2026)

Experiments:
Assay type in all cases: cell-based
[1] = system: MDA-MB-231 (breast cancer); assay: Antiproliferative activity (CCK-8 cell viability), MDA-MB-231; settings: Homo sapiens, 72 h; for inhibition at 3.3 µM: Compound concentration: 3.3 μM; for inhibition at 3.3 µM / inhibition at 10 µM: read-out: Antiproliferative activity in cancerous cells, MDA-MB-231 (inhibition of cell growth); for inhibition at 10 µM: Compound concentration: 10 μM
How it was run: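 Growth inhibition of human MDA-MB-231 breast cancer cells was assessed with a Cell Counting Kit-8. Cells cultured in DMEM plus 10% FBS were seeded at 2,000-5,000 cells/well, treated after attachment, and kept 72 h at 37° C. CCK-8 solution (10 μL) was added for 4 h, and absorbance at 450 nm was compared with DMSO-treated controls.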

[2] = system: A549 (lung adenocarcinoma); assay: Antiproliferative activity (CCK-8 cell viability), A549; settings: Homo sapiens, 72 h, read-out: Antiproliferative activity in cancerous cells, A549 (inhibition of cell growth); for inhibition at 3.3 µM: Compound concentration: 3.3 μM; for inhibition at 10 µM: Compound concentration: 10 μM
How it was run: (§1)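 Growth inhibition graded in bands from percent viability against DMSO vehicle, read as CCK-8 absorbance at 450 nm. Compound tested at 3.3, 10 or 30 μM for 72 h, 37 °C; media contained 10% FBS: DMEM for HepG2/SW480, MEM for HeLa, F-12K for A549.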

SW480 (colon cancer) = assay: Antiproliferative activity (CCK-8 cell viability), SW480; settings: Homo sapiens, 72 h, read-out: Antiproliferative activity in cancerous cells, SW480 (inhibition of cell growth); for inhibition at 3.3 µM: Compound concentration: 3.3 μM; for inhibition at 10 µM: Compound concentration: 10 μM
How it was run: as §1

HepG2 (liver cancer) = assay: Antiproliferative activity (CCK-8 cell viability), HepG2; settings: Homo sapiens, 72 h, read-out: Antiproliferative activity in cancerous cells, HepG2 (inhibition of cell growth); for inhibition at 3.3 µM: Compound concentration: 3.3 μM; for inhibition at 10 µM: Compound concentration: 10 μM
How it was run: as §1

HeLa (cervical cancer) = assay: Antiproliferative activity (CCK-8 cell viability), HeLa; settings: Homo sapiens, 72 h, read-out: Antiproliferative activity in cancerous cells, HELA (inhibition of cell growth); for inhibition at 3.3 µM: Compound concentration: 3.3 μM; for inhibition at 10 µM: Compound concentration: 10 μM
How it was run: as §1

[3] = system: A431 (epidermoid carcinoma); assay: Antiproliferative activity (CCK-8 cell viability), A431; settings: Homo sapiens, 72 h, read-out: Antiproliferative activity in cancerous cells, A431 (inhibition of cell growth); for inhibition at 3.3 µM: A-431, Compound concentration: 3.3 μM; for inhibition at 10 µM: A-431, Compound concentration: 10 μM
How it was run: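 This growth inhibition assay used A431 cells maintained in Dulbecco's modified Eagle's medium plus 10% fetal bovine serum. Cells were seeded in 96-well plates, treated with compound for 72 h at 37° C., and then given 10 μL CCK-8 solution. After a further 4 h, absorbance was read at 450 nm.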

[4] = system: B16F10 (malignant melanoma); assay: Antiproliferative activity (CCK-8 cell viability), B16F10; settings: Mus musculus, 72 h, read-out: Antiproliferative activity in cancerous cells, B16F10 (inhibition of cell growth); for inhibition at 3.3 µM: B16-F10, Compound concentration: 3.3 μM; for inhibition at 10 µM: B16-F10, Compound concentration: 10 μM
How it was run: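 Cell growth inhibition was measured in B16F10 malignant melanoma cells with a Cell Counting Kit-8 viability assay. Cells were maintained in DMEM plus 10% fetal bovine serum, seeded at 2,000-5,000 cells/well in 96-well plates, and treated for 72 h at 37° C. Viability was expressed relative to DMSO-treated vehicle control wells.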

SMILES | inhibition at 3.3 µM [1] | inhibition at 10 µM [1] | inhibition at 3.3 µM [2] | inhibition at 10 µM [2] | inhibition at 3.3 µM (SW480 (colon cancer)) | inhibition at 10 µM (SW480 (colon cancer)) | inhibition at 3.3 µM (HepG2 (liver cancer)) | inhibition at 10 µM (HepG2 (liver cancer)) | inhibition at 3.3 µM (HeLa (cervical cancer)) | inhibition at 10 µM (HeLa (cervical cancer)) | inhibition at 3.3 µM [3] | inhibition at 10 µM [3] | inhibition at 3.3 µM [4] | inhibition at 10 µM [4] | inhibition at 30 µM ([1]; Compound concentration: 30 μM, read-out: Antiproliferative activity in cancerous cells, MDA-MB-231)
CC1=C(CC(=O)O)c2cc(I)ccc2/C1=C\c1ccc(COCc2ccc(F)cc2)cc1 [B109, (Z)-2-(1-(4-(((4-Fluorobenzyl)oxy)methyl)benzylidene)-5-iodo-2-methyl-1H-inden-3-yl)acetic acid] | ≥ 50% | ≥ 50% | 30 to 50% | ≥ 50% | < 30% | ≥ 50% | < 30% | ≥ 50% | ≥ 50% | ≥ 50% | < 30% | ≥ 50% | < 30% | ≥ 50% | 
CC1=C(CC(=O)O)c2cc(F)ccc2/C1=C\c1ccc(Oc2ccc(F)c(Br)c2)cc1 [C53, (Z)-2-(1-(4-(3-Bromo-4-fluorophenoxy)benzylidene)-5-fluoro-2-methyl-1H-inden-3-yl)acetic acid] | ≥ 50% | ≥ 50% | < 30% | 30 to 50% | < 30% | ≥ 50% | < 30% | ≥ 50% | < 30% | ≥ 50% | ≥ 50% | ≥ 50% | < 30% | ≥ 50% | 
CC1=C(CC(=O)O)c2cc(Cl)ccc2/C1=C\c1ccc(COc2ccc(C(F)(F)F)cc2)cc1 [B58, (Z)-2-(5-Chloro-2-methyl-1-(4-((4-(trifluoromethyl)phenoxy)methyl)-benzylidene)-1H-inden-3-yl)acetic acid] | < 30% | < 30% | < 30% | 30 to 50% | < 30% | 30 to 50% | < 30% | ≥ 50% | 30 to 50% | ≥ 50% | 30 to 50% | 30 to 50% | ≥ 50% | ≥ 50% | 30 to 50%
CC1=C(CC(=O)O)c2cc(F)ccc2/C1=C\c1cccc(Oc2ccc(F)c(F)c2)c1 [C98, (Z)-2-(1-(3-(3,4-Difluorophenoxy)benzylidene)-5-fluoro-2-methyl-1H-inden-3-yl)acetic acid] | < 30% | 30 to 50% | < 30% | < 30% | < 30% | < 30% | < 30% | ≥ 50% | < 30% | ≥ 50% | < 30% | 30 to 50% | 30 to 50% | ≥ 50% | 
CC1=C(CC(=O)O)c2cc(F)ccc2/C1=C\c1ccc(COCc2ccc(F)c(F)c2)cc1 [B105, (Z)-2-(1-(4-(((3,4-Difluorobenzyl)oxy)methyl)benzylidene)-5-fluoro-2-methyl-1H-inden-3-yl)acetic acid] | 30 to 50% | ≥ 50% | 30 to 50% | ≥ 50% | 30 to 50% | ≥ 50% | < 30% | ≥ 50% | ≥ 50% | ≥ 50% | 30 to 50% | ≥ 50% | 30 to 50% | ≥ 50% | 
